Measured values as given in US9090897B2, “Production of IFN-lambda by conventional dendritic cells” (Bavarian Nordic A/S, priority 2009, dated 2015).
Entries after “also recorded” stand apart in the source; their conditions may differ.

Key:
[1] = tested on: BDCA3+ DC; assay: Stimulation of human BDCA3+ DC, IFN-λ1 and IFN-λ2 ELISA; type: cell-based; settings: BDCA3 positive cells vs BDCA1 cells, all donors, 100 μg/ml, 18-24 h
Procedure: (§1) PBMC were prepared from peripheral blood of non-atopic blood donors by density gradient centrifugation and BDCA3+ DC were purified from PBMC using the BDCA3/CD141+Dendritic Cell Isolation Kit (Miltenyi Biotech) on an AutoMACS™ separator. Subsequently, BDCA1+ DC were purified from the BDCA3-depleted PBMC using the BDCA1/CD1c+ Dendritic Cell Isolation Kit (Miltenyi Biotech). […] After stimulation for 18-24 h the supernatants were analyzed for IFN-λ1 and IFN-λ2 by ELISA according to manufacturer's recommendations (Tebu-bio).

[2] = tested on: CD8α+ cDCs; assay: In vitro stimulation of FL expanded ex-vivo isolated splenic CD8α+ cDCs, IFN-λ; type: cell-based, mouse; settings: 5×10^5/ml, IL-3+GM-CSF+IL-4+IFN-γ, 100 μg/ml, 18 h
Procedure: (§2) FIG. 13 depicts that in vivo FL expanded CD8α+cDCs and eCD8α cDCs selectively produce IFN-λ to poly AU in vitro. Highly purified FL expanded ex-vivo isolated splenic 5×10^5/ml were stimulated in the presence of IL-3+GM-CSF+IL-4+IFN-γ with either poly IC (100 μg/ml) or poly AU (100 μg/ml). After 18 h supernatants were analyzed for IFN-λ.
(§3) To see if the IFN-λ production to poly AU seen in vivo would correspond with the same cells as in response to poly IC we enhanced the amount of DC in mice with FL treatment and sorted CD8α+ cDCs, eCD8α cDCs and CD11b+/CD172a+cDCs. Those cells were stimulated with poly IC or poly AU.

[3] = tested on: eCD8α cDCs; assay: In vitro stimulation of FL expanded ex-vivo isolated splenic eCD8α cDCs, IFN-λ; type: cell-based, mouse; settings: 5×10^5/ml, IL-3+GM-CSF+IL-4+IFN-γ, 100 μg/ml, 18 h
Procedure: as §2, §3

[4] = tested on: mice; assay: In vivo challenge (i.v.), serum IFN-λ and IFN-α by ELISA; design: species or system mouse; settings: 100 μg i.v.
[5] = tested on: PBMC; assay: Stimulation of human PBMC, IFN-λ1 and IFN-λ2 ELISA; type: cell-based; settings: PBMCs and fractions of DC-enriched PBMCs, IL-3, GM-CSF and IFN-γ, 18-24 h
Procedure: as §1

[6] = tested on: splenocytes; assay: Spleen cell fractions separated after in vivo injection, cultured 18 h, IFN-λ in supernatant; design: species or system mouse; settings: spleens 1.5-2 h after i.v. injection, magnetic bead separation, 18 h culture
Procedure: 1.5-2 h after i.v. injection of poly IC spleens were harvested and processed. Cell free supernatants were analyzed for IFN-λ after in vitro culture for 18 h. (A) 5×10^6 cells/ml total spleen cells or cells separated by density centrifugation into light density cells or heavy density cells. (B) total spleen cells 25×10^6 cells/ml of WT or CD11c-DTR-tg mice treated 2 days before with diphtheria toxin (DT). (C) Total spleen cells before separation or after magnetic bead separation into the denoted populations. The initial cell number of splenocytes added onto the column was 20×10^6. Without further counting each fraction was distributed into 2 wells with 200 μl medium/well. Bars represent the mean±SD of 2 independent experiments (A+C) or 1 experiment (B) using 2 mice per experiment.
Spleen cells 1.5 h after in vivo injection with DISC HSV-1 were separated with anti-CD45R and magnetic beads into positive and negative fractions. The CD45R negative fraction was further separated into cells positive or negative for CD8α. Separated cells were cultured in vitro for the next 18 h and cell-free supernatants were analyzed for IFN-λ.^˜ Bars represent the mean±SD of 2 independent experiments using one mouse per experiment.

[7] = tested on: total non parenchymal liver cells; assay: In vitro stimulation of total non parenchymal liver cells, IFN-λ and IL-12p70; type: cell-based, mouse; settings: liver cells from WT mice, 2.5×10^6/ml, IL-3+IL-4+IFN-γ+GM-CSF, 18 h
Procedure: FIGS. 3A and B depict that FL is involved in the production of IFN-λ in vivo. (A) Isolated total non parenchymal liver cells 2.5×10^6/ml were stimulated in the presence of IL-3+IL-4+IFN-γ+GM-CSF with the stimuli as indicated. After 18 h supernatants were analyzed for IFN-λ and IL-12p70. Representative results of 3 experiments are shown. Data represent mean+/−SD of duplicate samples. (B) WT and FL-KO mice were injected i.v. with 100 μg poly IC. After 3-4 h sera were analyzed for IFN-λ and IFN-α. Circles indicate the results of individual mice and columns represent the mean thereof.
Cells were stimulated in vitro with single TLR agonists or combinations thereof containing 10 μg/ml Pam3Cys (InvivoGen), 100 μg/ml poly IC (Axxora), 10 μg/ml LPS (E. coli; Sigma-Aldrich or Axxora), 10 μg/ml R848 (Axxora), 1 μM CpG-1668 or CpG-2216 (TIB-Molbiol), 1 μg/ml profilin of toxoplasma (Axxora). The recombinant cytokines mouse-IL-3, mouse-IL-4, rat-IFN-γ (PeproTech) and mouse-GM-CSF (Tebu-Bio) (10 ng/ml each) were added as indicated. […] IFN-λ in supernatants was analyzed by ELISA and IL-12p70 was determined by FlowCytomix bead assay (Bender Medsystems) according to manufacturer's protocol. […]

Polyinosinic:polycytidylic acid [poly IC]
IFN-λ1 production [1]: major producers | IFN-λ2 production [1]: major producers | IFN-λ production [2]: able to produce IFN-λ | IFN-λ production [3]: able to produce IFN-λ | serum IFN-α ([4]; Cardif-KO mice, 3-4 h): complete abrogation of serum IFN-α | serum IFN-λ ([4]; Cardif-KO mice, 3-4 h): no effects on IFN-λ production | Serum levels of IFN-α ([4]; FL-KO mice, 3-4 h): remained easily detectable | systemic production of IFN-α ([4]; IFN-AR-KO vs WT mice, 3-4 h): largely dependent on the presence of IFN-AR | systemic production of IFN-λ ([4]; IFN-AR-KO vs WT mice, 3-4 h): largely dependent on the presence of IFN-AR | serum IFN-α ([4]; IRF7-KO mice, 3-4 h): almost abrogated | serum IFN-α ([4]; MyD88-KO mice, 3-4 h): Large amounts | serum IFN-λ ([4]; MyD88-KO mice, 3-4 h): Large amounts | serum IFN-α ([4]; TLR3-KO mice, 3-4 h): no effect on the production of IFN-α | Serum levels of IFN-α ([4]; WT mice, sera after 3-4 h): easily detectable; also recorded: Large amounts | IFN-λ1 (IL-29) production [5]: induced | IFN-λ2 (IL-28A) production [5]: induced | splenocyte fraction with which IFN-λ production separates [6]: separates with CD45R−/CD11c+/CD8α+ splenocytes | IFN-λ production [7]: produced IFN-λ
